Test results from ChEMBL document CHEMBL5352475, “Design, synthesis, and biological evaluation of novel glutaminase 1 allosteric inhibitors with an alkane chain tail group” (Eur J Med Chem, 2023).

Experiments:
[1] = target: T1, Glutaminase kidney isoform, mitochondrial (Homo sapiens, UniProt O94925); test: Inhibition of GLS1 (unknown origin) preincubated for 10 mins followed by glutamine addition measured after 60 mins
T1 sequence (O94925 whole entry): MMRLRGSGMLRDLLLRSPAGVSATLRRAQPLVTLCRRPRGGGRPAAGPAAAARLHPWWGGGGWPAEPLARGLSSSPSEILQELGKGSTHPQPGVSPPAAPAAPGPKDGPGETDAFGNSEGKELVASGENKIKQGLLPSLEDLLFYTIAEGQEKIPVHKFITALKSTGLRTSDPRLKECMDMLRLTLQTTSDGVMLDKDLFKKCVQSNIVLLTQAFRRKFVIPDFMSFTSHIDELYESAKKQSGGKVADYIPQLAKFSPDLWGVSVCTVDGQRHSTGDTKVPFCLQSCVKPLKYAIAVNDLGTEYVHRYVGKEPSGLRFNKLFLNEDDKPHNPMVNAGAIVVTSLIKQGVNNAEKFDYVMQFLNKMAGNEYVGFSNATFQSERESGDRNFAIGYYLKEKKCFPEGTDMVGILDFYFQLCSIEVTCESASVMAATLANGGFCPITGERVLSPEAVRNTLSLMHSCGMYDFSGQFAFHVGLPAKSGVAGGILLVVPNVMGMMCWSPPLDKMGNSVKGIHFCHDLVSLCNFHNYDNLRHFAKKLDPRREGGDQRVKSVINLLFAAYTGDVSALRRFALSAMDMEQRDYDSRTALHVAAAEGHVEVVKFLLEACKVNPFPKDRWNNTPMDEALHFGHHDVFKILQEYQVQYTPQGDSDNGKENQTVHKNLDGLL

[2] = Metabolic stability in human liver microsomes assessed as half life by LC-MS/MS analysis; type: ADME, Microsome
[3] = Metabolic stability in human liver microsomes assessed as clearance measured upto 120 mins by LC-MS/MS analysis; type: ADME, Microsome; settings: read-out: CLH
HCT-116 [4] = test: Antiproliferative activity against human HCT-116 cells in presence of alpha-ketoglutarate; type: functional, cell-based
HCT-116 [5] = test: Induction of apoptosis in human HCT-116 cells assessed as early apoptotic cells at 0.1 uM measured after 24 hrs by FITC annexin-V/PI staining based flow cytometric analysis (reference value: 3.73%); type: functional
HCT-116 [6] = test: Induction of apoptosis in human HCT-116 cells assessed as late apoptotic cells at 0.1 uM measured after 24 hrs by FITC annexin-V/PI staining based flow cytometric analysis (reference value: 5.41%); type: functional
HCT-116 [7] = test: Induction of apoptosis in human HCT-116 cells assessed as early apoptotic cells at 0.3 uM measured after 24 hrs by FITC annexin-V/PI staining based flow cytometric analysis (reference value: 3.73%); type: functional
HCT-116 [8] = test: Induction of apoptosis in human HCT-116 cells assessed as late apoptotic cells at 0.3 uM measured after 24 hrs by FITC annexin-V/PI staining based flow cytometric analysis (reference value: 5.41%); type: functional
HCT-116 [9] = test: Induction of apoptosis in human HCT-116 cells assessed as early apoptotic cells at 1 uM measured after 24 hrs by FITC annexin-V/PI staining based flow cytometric analysis (reference value: 3.73%); type: functional
HCT-116 [10] = test: Induction of apoptosis in human HCT-116 cells assessed as late apoptotic cells at 1 uM measured after 24 hrs by FITC annexin-V/PI staining based flow cytometric analysis (reference value: 5.41%); type: functional
HCT-116 [11] = test: Induction of apoptosis in human HCT-116 cells assessed as early apoptotic cells at 3 uM measured after 24 hrs by FITC annexin-V/PI staining based flow cytometric analysis (reference value: 3.73%); type: functional
HCT-116 [12] = test: Induction of apoptosis in human HCT-116 cells assessed as late apoptotic cells at 3 uM measured after 24 hrs by FITC annexin-V/PI staining based flow cytometric analysis (reference value: 5.41%); type: functional
HCT-116 [13] = test: Induction of apoptosis in human HCT-116 cells assessed as early apoptotic cells at 10 uM measured after 24 hrs by FITC annexin-V/PI staining based flow cytometric analysis (reference value: 3.73%); type: functional
HCT-116 [14] = test: Induction of apoptosis in human HCT-116 cells assessed as late apoptotic cells at 10 uM measured after 24 hrs by FITC annexin-V/PI staining based flow cytometric analysis (reference value: 5.41%); type: functional
HCT-116 [15] = test: Induction of apoptosis in human HCT-116 cells assessed as total apoptotic cells at 10 uM measured after 24 hrs by FITC annexin-V/PI staining based flow cytometric analysis relative to control; type: functional
HCT-116 [16] = test: Antitumor activity against human HCT-116 cells xenografted in BALB/c nude mouse assessed as tumor growth inhibition at 100 mg/kg, ip for 20 days relative to control; type: functional; settings: time 20 day
[17] = Toxicity in BALB/c nude mouse xenografted with human HCT-116 cells assessed as as body weight loss at 100 mg/kg, ip upto 20 days; type: organism-based; settings: in vivo, 480 h, time < 20 day
[18] = Toxicity in BALB/c nude mouse xenografted with human HCT-116 cells assessed as obvious tissue lesion in heart at 100 mg/kg, ip upto 20 days; type: organism-based; settings: in vivo, 480 h, time < 20 day
[19] = Toxicity in BALB/c nude mouse xenografted with human HCT-116 cells assessed as obvious tissue lesion in liver at 100 mg/kg, ip upto 20 days; type: organism-based; settings: in vivo, 480 h, time < 20 day
[20] = Toxicity in BALB/c nude mouse xenografted with human HCT-116 cells assessed as obvious tissue lesion in kidney at 100 mg/kg, ip upto 20 days; type: organism-based; settings: in vivo, 480 h, time < 20 day
[21] = Toxicity in BALB/c nude mouse xenografted with human HCT-116 cells assessed as obvious tissue lesion in lung at 100 mg/kg, ip upto 20 days; type: organism-based; settings: in vivo, 480 h, time < 20 day
[22] = Toxicity in BALB/c nude mouse xenografted with human HCT-116 cells assessed as obvious tissue lesion in spleen at 100 mg/kg, ip upto 20 days; type: organism-based; settings: in vivo, 480 h, time < 20 day
[23] = Toxicity in BALB/c nude mouse xenografted with human HCT-116 cells assessed as change in cell structure in heart at 100 mg/kg, ip upto 20 days; type: organism-based; settings: in vivo, 480 h, time < 20 day
[24] = Toxicity in BALB/c nude mouse xenografted with human HCT-116 cells assessed as change in cell structure in liver at 100 mg/kg, ip upto 20 days; type: organism-based; settings: in vivo, 480 h, time < 20 day
[25] = Toxicity in BALB/c nude mouse xenografted with human HCT-116 cells assessed as change in cell structure in kidney at 100 mg/kg, ip upto 20 days; type: organism-based; settings: in vivo, 480 h, time < 20 day
[26] = Toxicity in BALB/c nude mouse xenografted with human HCT-116 cells assessed as change in cell structure in lung at 100 mg/kg, ip upto 20 days; type: organism-based; settings: in vivo, 480 h, time < 20 day
[27] = Toxicity in BALB/c nude mouse xenografted with human HCT-116 cells assessed as change in cell structure in spleen at 100 mg/kg, ip upto 20 days; type: organism-based; settings: in vivo, 480 h, time < 20 day
[28] = Toxicity in BALB/c nude mouse xenografted with human HCT-116 cells assessed as change in cell morphology in heart at 100 mg/kg, ip upto 20 days; type: organism-based; settings: in vivo, 480 h, time < 20 day
[29] = Toxicity in BALB/c nude mouse xenografted with human HCT-116 cells assessed as change in cell morphology in liver at 100 mg/kg, ip upto 20 days; type: organism-based; settings: in vivo, 480 h, time < 20 day
[30] = Toxicity in BALB/c nude mouse xenografted with human HCT-116 cells assessed as change in cell morphology in kidney at 100 mg/kg, ip upto 20 days; type: organism-based; settings: in vivo, 480 h, time < 20 day
[31] = Toxicity in BALB/c nude mouse xenografted with human HCT-116 cells assessed as change in cell morphology in lung at 100 mg/kg, ip upto 20 days; type: organism-based; settings: in vivo, 480 h, time < 20 day
[32] = Toxicity in BALB/c nude mouse xenografted with human HCT-116 cells assessed as change in cell morphology in spleen at 100 mg/kg, ip upto 20 days; type: organism-based; settings: in vivo, 480 h, time < 20 day
[33] = target: T2, Glutaminase kidney isoform, mitochondrial (Homo sapiens) (UniProt O94925)
T2 sequence (whole entry): T1 sequence (O94925 whole entry)
Description: Stabilization of GLS1 (unknown origin) assessed as change in melting temperature by protein thermal assay

HCT-116 [34] = test: cells; settings: Homo sapiens, HCT-116, 72 h
Description: Antiproliferative activity against human HCT-116 cells incubated for 72 hrs by MTT assay

[35] = Toxicity in BALB/c nude mouse xenografted with human HCT-116 cells assessed as proliferation of hepatocyte in liver at 100 mg/kg, ip upto 20 days; type: organism-based; settings: in vivo, 480 h, time < 20 day
[36] = Toxicity in BALB/c nude mouse xenografted with human HCT-116 cells assessed as degeneration of hepatocyte in liver at 100 mg/kg, ip upto 20 days; type: organism-based; settings: in vivo, 480 h, time < 20 day
[37] = Toxicity in BALB/c nude mouse xenografted with human HCT-116 cells assessed as cytoplasmic acidophilia in liver at 100 mg/kg, ip upto 20 days; type: organism-based; settings: in vivo, 480 h, time < 20 day
[38] = Toxicity in BALB/c nude mouse xenografted with human HCT-116 cells assessed as partial pyknosis of nuclei in liver at 100 mg/kg, ip upto 20 days; type: organism-based; settings: in vivo, 480 h, time < 20 day
[39] = Toxicity in BALB/c nude mouse xenografted with human HCT-116 cells assessed as prominent of nucleolus in liver at 100 mg/kg, ip upto 20 days; type: organism-based; settings: in vivo, 480 h, time < 20 day
[40] = Toxicity in BALB/c nude mouse xenografted with human HCT-116 cells assessed as hyperplasia of renal tubular epithelium in kidney at 100 mg/kg, ip upto 20 days; type: organism-based; settings: in vivo, 480 h, time < 20 day

Question: For `CCCCOc1cccc(CC(=O)Nc2ccc(N3CCC(Nc4nnc(NC(=O)CCCC)s4)CC3)nn2)c1`, which IC50 [1] is on record?
Answer: Its IC50 is 7 nM.

Question: What about the half-life [2] of the same compound?
Answer: The half-life was 1.8 h.

Question: What about the microsomal CLint [3] of the same compound?
Answer: Its microsomal CLint is 32 µL/min/mg.

Question: What about the IC50 (HCT-116 [4]) of the same compound?
Answer: Its IC50 is 41500 nM.

Question: What about the Activity (HCT-116 [5]) of the same compound?
Answer: Its Activity is 4.9%.

Question: And the Activity (HCT-116 [6])?
Answer: The Activity was 7.63%.

Question: What about the Activity (HCT-116 [7]) of the same compound?
Answer: Its Activity is 5.76%.

Question: What about the Activity (HCT-116 [8]) of the same compound?
Answer: The Activity was 9.88%.

Question: And the Activity (HCT-116 [9])?
Answer: Its Activity is 5.84%.

Question: What about the Activity (HCT-116 [10]) of the same compound?
Answer: The Activity was 12.3%.

Question: And the Activity (HCT-116 [11])?
Answer: The Activity was 6.54%.

Question: And the Activity (HCT-116 [12])?
Answer: Its Activity is 17.2%.

Question: And the Activity (HCT-116 [13])?
Answer: Its Activity is 8.52%.

Question: What about the Activity (HCT-116 [14]) of the same compound?
Answer: Its Activity is 20.5%.

Question: And the Activity (HCT-116 [15])?
Answer: The Activity was roughly 30%.

Question: And the TGI (HCT-116 [16])?
Answer: Its TGI is 38.9%.

Question: And the Activity [17]?
Answer: The Activity was “Non-Toxic”.

Question: What about the Activity [18] of the same compound?
Answer: Its Activity is “Non-Toxic”.

Question: And the Activity [19]?
Answer: Its Activity is “Non-Toxic”.

Question: What about the Activity [20] of the same compound?
Answer: Its Activity is “Non-Toxic”.

Question: And the Activity [21]?
Answer: The Activity was “Non-Toxic”.

Question: And the Activity [22]?
Answer: Its Activity is “Non-Toxic”.

Question: What about the Activity [23] of the same compound?
Answer: The Activity was “Non-Toxic”.

Question: What about the Activity [24] of the same compound?
Answer: The Activity was “Non-Toxic”.

Question: What about the Activity [25] of the same compound?
Answer: The Activity was “Non-Toxic”.

Question: What about the Activity [26] of the same compound?
Answer: The Activity was “Non-Toxic”.

Question: And the Activity [27]?
Answer: The Activity was “Non-Toxic”.

Question: And the Activity [28]?
Answer: Its Activity is “Non-Toxic”.

Question: And the Activity [29]?
Answer: The Activity was “Non-Toxic”.

Question: What about the Activity [30] of the same compound?
Answer: Its Activity is “Non-Toxic”.

Question: And the Activity [31]?
Answer: Its Activity is “Non-Toxic”.

Question: What about the Activity [32] of the same compound?
Answer: The Activity was “Non-Toxic”.

Question: And the ΔTm [33]?
Answer: Its ΔTm is 15.1 °C.

Question: What about the IC50 (HCT-116 [34]) of the same compound?
Answer: Its IC50 is 61 nM.

Question: Which results are given for `O=C(Cc1cccc(OC(F)(F)F)c1)Nc1ccc(CCCCc2nnc(NC(=O)Cc3ccccn3)s2)nn1`?
Answer: half-life [2]: 1.65 h; microsomal CLint [3]: 35 µL/min/mg; TGI (HCT-116 [16]): 43.7%; Activity [17]: Non-Toxic; Activity [35]: Toxic; Activity [36]: Toxic; Activity [37]: Toxic; Activity [38]: Toxic; Activity [39]: Toxic; Activity [40]: Toxic; IC50 (HCT-116 [34]): 560 nM
